Values of other authors in patent US20050163759A1, “Compositions and methods for ex vivo preservation of blood vessels for vascular grafts using inhibitors of type I and/or type II phosphodiesterases” (priority 2003, published 2005).

Tested on: endothelial cells
Conditions: stated as known; no experiment described

In the case of CCCC(=O)Nc1ncnc2c1ncn2[C@@H]1O[C@@H]2COP(=O)(O)O[C@H]2[C@H]1OC(=O)CCC [db cAMP, dibutyryl adenosine 3′,5′-cyclic monophosphate], the “db cAMP concentrations that become toxic to endothelial cells” value is listed as “higher than 4 mM”.
